For test [1], the target named is T1, Alpha-glucosidase MAL12 (Saccharomyces cerevisiae S288c, UniProt P53341). Kind of test: Inhibition of bakers yeast alpha-glucosidase using p-nitrophenyl-alpha-D-glucopyranoside as substrate incubated for 15 mins followed by substrate addition measured after 30 mins by spectrophotometric analysis.
In test [2] the target is T1, Alpha-glucosidase MAL12. Kind of test: Non-competitive inhibition of bakers yeast alpha-glucosidase using p-nitrophenyl-alpha-D-glucopyranoside as substrate by Lineweaver-Burk plot analysis.

For orientation: IC50 means the point on the concentration scale where inhibition reaches its midpoint. Read a low IC50 as greater potency in that assay. The Ki is the equilibrium dissociation constant of an inhibitor or competing ligand from its target. A high value points to lower affinity.

T1 sequence (P53341 whole entry): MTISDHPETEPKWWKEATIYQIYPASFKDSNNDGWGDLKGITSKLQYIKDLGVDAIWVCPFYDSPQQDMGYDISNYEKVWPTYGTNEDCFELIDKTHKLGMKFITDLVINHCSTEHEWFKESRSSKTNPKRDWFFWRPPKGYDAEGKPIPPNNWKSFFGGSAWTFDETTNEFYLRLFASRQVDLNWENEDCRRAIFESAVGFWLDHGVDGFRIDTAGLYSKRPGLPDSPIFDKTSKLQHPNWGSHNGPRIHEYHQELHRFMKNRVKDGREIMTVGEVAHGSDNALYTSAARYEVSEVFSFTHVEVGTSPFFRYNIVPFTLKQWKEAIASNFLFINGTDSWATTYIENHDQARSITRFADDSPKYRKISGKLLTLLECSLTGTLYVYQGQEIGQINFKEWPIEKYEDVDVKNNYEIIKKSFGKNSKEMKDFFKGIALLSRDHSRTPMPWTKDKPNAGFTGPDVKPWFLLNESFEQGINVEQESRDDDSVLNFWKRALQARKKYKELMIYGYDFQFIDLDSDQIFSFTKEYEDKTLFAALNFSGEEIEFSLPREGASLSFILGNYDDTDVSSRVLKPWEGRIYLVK

Consider `CCOc1ccccc1NC(=O)Cn1cc(Cn2c(-c3cccc(Br)c3)nc(-c3ccccc3)c2-c2ccccc2)nn1`, for which it took 15.2 µM to reach half-maximal inhibition at Alpha-glucosidase MAL12 [1] (IC50). In addition, the Ki at Alpha-glucosidase MAL12 [2] was determined as 14.8 µM.

Compound `Cc1ccc(NC(=O)Cn2cc(Cn3c(-c4cccc(F)c4)nc(-c4ccccc4)c3-c3ccccc3)nn2)c(C)c1` gave an IC50 on Alpha-glucosidase MAL12 [1] of 30.1 µM.

Turning to `O=C(Cn1cc(Cn2c(-c3ccc(F)cc3)nc(-c3ccccc3)c2-c2ccccc2)nn1)Nc1ccc(Cl)cc1Cl`, on Alpha-glucosidase MAL12 [1], the IC50 came out at 22.8 µM.

Compound `COc1ccc(NC(=O)Cn2cc(Cn3c(-c4cccc(Cl)c4)nc(-c4ccccc4)c3-c3ccccc3)nn2)cc1` had an IC50 against Alpha-glucosidase MAL12 [1] of 48.2 µM.

For the compound `CCOc1ccc(NC(=O)Cn2cc(Cn3c(-c4ccc(C(=O)OC)cc4)nc(-c4ccccc4)c3-c3ccccc3)nn2)cc1`, half-maximal inhibition at Alpha-glucosidase MAL12 [1] (IC50) was put at 17 µM.

On Alpha-glucosidase MAL12 [1], `CCOc1ccc(NC(=O)Cn2cc(Cn3c(-c4cccc(Cl)c4)nc(-c4ccccc4)c3-c3ccccc3)nn2)cc1` came in with an IC50 of 44.2 µM.

Regarding `COc1ccccc1-c1nc(-c2ccccc2)c(-c2ccccc2)n1Cc1cn(CC(=O)Nc2ccc(C)cc2)nn1`, the IC50 against Alpha-glucosidase MAL12 [1] was 27 µM.

On Alpha-glucosidase MAL12 [1], `CCOc1ccccc1NC(=O)Cn1cc(Cn2c(-c3ccccc3F)nc(-c3ccccc3)c2-c2ccccc2)nn1` yielded an IC50 of 36.9 µM.

In the case of `COc1ccc(NC(=O)Cn2cc(Cn3c(-c4cccs4)nc(-c4ccccc4)c3-c3ccccc3)nn2)cc1`, the IC50 against Alpha-glucosidase MAL12 [1] amounted to 24.2 µM.

For the compound `O=C(Cn1cc(Cn2c(-c3ccc(Br)cc3)nc(-c3ccccc3)c2-c2ccccc2)nn1)Nc1ccc(F)cc1`, the IC50 on Alpha-glucosidase MAL12 [1] is 22 µM.

At Alpha-glucosidase MAL12 [1], `COc1cc(-c2nc(-c3ccccc3)c(-c3ccccc3)n2Cc2cn(CC(=O)Nc3cccc(C)c3)nn2)cc(OC)c1OC` showed an IC50 of 20.3 µM.

With `Cc1ccccc1NC(=O)Cn1cc(Cn2c(-c3cccc(F)c3)nc(-c3ccccc3)c2-c2ccccc2)nn1`, at Alpha-glucosidase MAL12 [1], it took 32.1 µM to reach half-maximal inhibition (IC50).

Consider `CCOc1ccc(NC(=O)Cn2cc(Cn3c(-c4cccc(Br)c4)nc(-c4ccccc4)c3-c3ccccc3)nn2)cc1`, for which the IC50 against Alpha-glucosidase MAL12 [1] worked out at 19.6 µM.

Regarding `Cc1ccccc1NC(=O)Cn1cc(Cn2c(-c3ccc(Br)cc3)nc(-c3ccccc3)c2-c2ccccc2)nn1`, inhibition on Alpha-glucosidase MAL12 [1] was half-maximal at 29.3 µM (IC50).

Regarding `COc1cc(-c2nc(-c3ccccc3)c(-c3ccccc3)n2Cc2cn(CC(=O)Nc3ccc(Cl)cc3)nn2)cc(OC)c1OC`, the IC50 against Alpha-glucosidase MAL12 [1] was 29.2 µM.

Compound `COc1ccc(-c2nc(-c3ccccc3)c(-c3ccccc3)n2Cc2cn(CC(=O)Nc3ccc(Cl)cc3Cl)nn2)cc1OC` came in with an IC50 against Alpha-glucosidase MAL12 [1] of 21.6 µM.

The compound `COC(=O)c1ccc(-c2nc(-c3ccccc3)c(-c3ccccc3)n2Cc2cn(CC(=O)Nc3cc(Cl)ccc3Cl)nn2)cc1` returned an IC50 on Alpha-glucosidase MAL12 [1] of 20.2 µM.

Take `Cc1ccc(NC(=O)Cn2cc(Cn3c(-c4cccc(Cl)c4)nc(-c4ccccc4)c3-c3ccccc3)nn2)c(C)c1`: the IC50 against Alpha-glucosidase MAL12 [1] was determined as 38.5 µM.

Source of the values: ChEMBL document CHEMBL3867466, “Synthesis and biological evaluation of novel 2,4,5-triarylimidazole-1,2,3-triazole derivatives via click chemistry as α-glucosidase inhibitors” (Bioorg Med Chem Lett, 2016).
